Like-named read-outs stand apart in the source and are kept apart here.
Experiments:
[1] = BBB-specific parallel artificial membrane permeability assay (PAMPA-BBB); format: in vitro ADME, porcine; details: pH 7.4, 37° C.; for MR (membrane retention factor): 4 h; for Papp at 4 h, 100 μM: pig, Pe in cm/s, read-out: BBB permeability log Pe (converted)
Description: BBB permeability was estimated using a BBB-specific parallel artificial membrane permeability assay (PAMPA-BBB). […] Five v/v % DMSO in PBS (Phosphate Buffer Saline; 0.01 M, pH=7.4) buffer solutions of each compound were prepared with the final nominal concentration of 100 μM. These solutions were treated with ultrasonic waves and then centrifuged in case the test compounds were insoluble at this concentration. Proceeding with saturated, homogenous solutions (CD(0)) is sufficient because log Pe only depends on relative concentrations. A BBB specific PAMPA system was used to determine the log Pe and membrane retention (MR). Each well of the top plate (MultiScreen […]10; Millipore; Billerica, US) was carefully coated with 5 μL of porcine polar brain lipid extract (PBLE; Avanti Polar Lipids, Birmingham, US) solution, then 150 μL of the CD(0) solution was put on the membrane. The bottom plate (MultiScreen MDCPN2M50; Millipore, Billerica, US) was filled with […] PBS. PBLE solution consisted of 1 mg PBLE per 10 μL n-dodecane and 30 μL n-hexane. The donor plate was put on the acceptor plate and covered with a wet paper tissue and a plate lid. The sandwich system was incubated at 37° C. for 4 h. The plates were shaken and incubated in a Thermo ScientificTM MaxQTM 4000 Benchtop Orbital Shaker (Gel, Belgium). After the incubation, PAMPA sandwich plates were separated and compound concentrations in donor (CD(t)) and acceptor (CA(t)) solutions were determined by UPLC-MS (Waters, Milford, US). The concentration of the donor solution at zero time point (CD(0)) was determined using the supernatant after centrifugation.

[2] = In vivo pharmacokinetic study, plasma and brain levels by LC-MS; parameters: species or system mice
Description: The compounds pharmacokinetic properties were examined in vivo by administering the compounds intraperitoneally (i.p.) at 1 mg/kg in mice, and determining plasma and brain levels over 8 h by LC-MS measurements.
The pharmacokinetic study was performed by Pharmacelsus (Saarbrücken, Germany). In total 27 male C57BL/6 mice (8 weeks old, 23-31 g body weight, purchased from Janvier Labs, France) were used. The animals were housed in a temperature-controlled room (20-24° C.) and maintained in a 12 h light/dark cycle. Food and water were available ad libitum. All experimental procedures were approved by and conducted in accordance with the regulations of the local Animal Welfare authorities (Landesamt für Gesundheit und Verbraucherschutz, Abteilung Lebensmittel-und Veterinärwesen, Saarbrücken).
The animals were divided into 3 groups (9 mice/group) and a cassette dosing was performed, in which the mice received a single dose of 1 mg/kg body weight of 3-4 compounds (dissolved in 0.9% NaCl containing 20% cyclodextrine) i.p. simultaneously. From each animal 2 blood samples were collected from the retrobulbar venous plexus under short isoflurane anesthesia (at 0.25 h and 0.5 h from 3 mice; at 1 h and 2 h from 3 mice; and at 4 h and 8 h from 3 mice). Li-heparin was used as anticoagulant. Plasma samples were obtained by centrifugation for 10 min at 3000× g and 4° C. Immediately after the last blood sample the animal was sacrificed by cervical dislocation and the brain was removed and frozen in liquid nitrogen. Plasma and brain samples were stored at −80° C. until LC-MS analysis.
For all other compounds, the HPLC system consisted of a U-HPLC pump (Accela) and an AS Open auto sampler (Thermo Fisher Scientific, USA), and mass spectrometry was performed on a Q Exactive (Orbitrap) accurate mass spectrometer equipped with a heated electrospray (H-ESI) interface (Thermo Fisher Scientific, USA) connected to a PC running the standard software Chromeleon 7.2. For all compounds, the HPLC pump flow rate was set to 600 μl/min and the compounds were separated on an analytical column with a suitable pre-column. The pharmacokinetic analysis was performed applying a non-compartment model using the Kinetica 5.0 software (Thermo Scientific, Waltham, USA). All given parameters were obtained by trapezoid area calculation.

[3] = male, C57BL/6, mouse, in vivo, ip, 1 mg/kg
[4] = mice, 1 mg/kg i.p., cassette dosing, plasma

| MR (membrane retention factor) [1] | Papp at 4 h, 100 μM [1] [×10⁻⁶ cm/s] | % AUCextra [2, 3] [%] | AUC(0-inf) [2, 3] [ng·h/mL] | AUC(0-t) [2, 3] [ng·h/mL] | CL/F [2, 3] [mL/min/kg] | Cmax [2, 3] [ng/mL] | Cz [2, 3] [ng/mL] | Tmax [2, 3] [min] | Vd/F [2, 3] [L/kg] | half-life [2, 3] [min] | tz [2, 3] [h] | Compound | other results |
| --- | --- | --- | --- | --- | --- | --- | --- | --- | --- | --- | --- | --- | --- |
| −0.10 | 35.5 | 0.6 | 123 | 123 | 135 | 242 | 0.3 | 15 | 21.1 | 108 | 8 | O=C(O)COCCN1CCCN(C2=Nc3ccccc3Oc3ccc(C(F)(F)F)cc32)CC1 [Compound 9, 2-(2-(4-(2-(Trifluoromethyl)dibenzo[b,f][1,4]oxazepin-11-yl)-1,4-diazepan-1-yl)ethoxy) acetic acid] | – |
| 0.74 | 21.4 | 11.4 | 122 | 108 | 137 | 40 | 4.1 | 30 | 27.7 | 138 | 8 | CN1CCN(C2=Nc3cc(F)ccc3Oc3ccc(C(F)(F)F)cc32)CC1 [Compound 4, 8-Fluoro-11-(4-methylpiperazin-1-yl)-2-(trifluoromethyl)dibenzo[b,f][1,4]oxazepine] | – |
| 0.03 | 39.8 | 1.3 | 50.2 | 49.6 | 332 | 44 | 0.4 | 15 | 33.1 | 72 | 8 | OCCN1CCN(C2=Nc3ccccc3Oc3ccc(Cl)cc32)CC1 [Compound 5, 2-(4-(2-Chlorodibenzo[b,f][1,4]oxazepin-11-yl)piperazin-1-yl) ethan-1-ol] | – |
| 0.33 | – | – | – | – | – | – | – | – | – | – | – | CN1CCN(C2=Nc3ccccc3Oc3ccc(Cl)cc32)CC1 [Loxapine, 2-chloro-11-(4-methylpiperazin-1-yl)dibenzo[b,f][1,4]oxazepine, reference compound] | AUC(0-inf) ([2]; male, C57BL/6, mouse, ip, mice, 1 mg/kg i.p., cassette dosing, plasma, read-out: AUC (0-inf)): 116 ng·h/mL; AUC(0-t) ([2]; male, C57BL/6, mouse, ip, mice, 1 mg/kg i.p., cassette dosing, plasma, read-out: AUC(0-tz)): 105 ng·h/mL; CL/F ([2]; male, C57BL/6, mouse, ip, mice, 1 mg/kg i.p., cassette dosing, plasma, read-out: CL/f (converted)): 144 mL/min/kg; Cmax ([2]; male, C57BL/6, mouse, ip, mice, 1 mg/kg i.p., cassette dosing, plasma, read-out: Cmax): 41.6 ng/mL; Vd/F ([2]; male, C57BL/6, mouse, ip, mice, 1 mg/kg i.p., cassette dosing, plasma, read-out: Vz/f): 28.8 L/kg; half-life ([2]; male, C57BL/6, mouse, ip, mice, 1 mg/kg i.p., cassette dosing, plasma, read-out: t1/2z (terminal elimination half-life) (converted)): 138 min; Tmax ([2]; male, C57BL/6, mouse, ip, mice, 1 mg/kg i.p., cassette dosing, plasma, read-out: tmax): 15 min; % AUCextra [2, 4]: 9.2%; Cz [2, 4]: 3.2 ng/mL; tz [2, 4]: 8 h |
| 0.02 | – | – | – | – | – | – | – | – | – | – | – | O=c1nc(CN2CCN(C3=Nc4ccccc4Oc4ccc(Cl)cc43)CC2)[nH][nH]1 [Compound 10, 5-((4-(2-Chlorodibenzo[b,f][1,4]oxazepin-11-yl)piperazin-1-yl)methyl)-1,2-dihydro-3H-1,2,4-triazol-3-one] | Kp [2, 3]: ≤ 0.3 |
| 0.64 | 26.3 | 19.3 | 84 | 67.8 | 199 | 25.6 | 3.3 | 15 | 58.5 | 204 | 8 | CN1CCN(C2=Nc3ccccc3Oc3ccc(C(F)(F)F)cc32)CC1 [Compound 2, 11-(4-Methylpiperazin-1-yl)-2-(trifluoromethyl)dibenzo[b,f][1,4]oxazepine] | – |
| – | 26.3 | 20.7 | 851 | 675 | 19.6 | 316 | 31.4 | 15 | 6.58 | 234 | 8 | O=C(O)COCCN1CCN(C2=Nc3ccccc3Oc3ccc(C(F)(F)F)cc32)CC1 [Compound 8, 2-(2-(4-(2-(Trifluoromethyl)dibenzo[b,f][1,4]oxazepin-11-yl)piperazin-1-yl)ethoxy) acetic acid] | – |
| 0.19 | 53.7 | 0.9 | 71.9 | 71.2 | 232 | 87.2 | 0.3 | 15 | 31.4 | 96 | 8 | OCCOCCN1CCN(C2=Nc3ccccc3Sc3ccc(Cl)cc32)CC1 [Compound 7, 2-(2-(4-(2-Chlorodibenzo[b,f][1,4]thiazepin-11-yl)piperazin-1-yl)ethoxy) ethan-1-ol] | – |
| 0.5 | 38 | 5.0 | 58.3 | 55.4 | 286 | 32.3 | 1.0 | 30 | 50.1 | 120 | 8 | CN1CCCN(C2=Nc3ccccc3Oc3ccc(C(F)(F)F)cc32)CC1 [Compound 3, 11-(4-Methyl-1,4-diazepan-1-yl)-2-(trifluoromethyl)dibenzo[b,f][1,4]oxazepine] | – |

| Compound | MR (membrane retention factor) [1] | Papp at 4 h, 100 μM [1] [×10⁻⁶ cm/s] | % AUCextra [2, 3] [%] | AUC(0-inf) [2, 3] [ng·h/mL] | AUC(0-t) [2, 3] [ng·h/mL] | CL/F [2, 3] [mL/min/kg] | Cmax [2, 3] [ng/mL] | Cz [2, 3] [ng/mL] | Tmax [2, 3] [min] | Vd/F [2, 3] [L/kg] | half-life [2, 3] [min] | tz [2, 3] [h] | other results |
| --- | --- | --- | --- | --- | --- | --- | --- | --- | --- | --- | --- | --- | --- |
| O=C(O)COCCN1CCN(C2=Nc3ccccc3Oc3ccc(Cl)cc32)CC1 [Compound 6, 2-(2-(4-(2-Chlorodibenzo[b,f][1,4]oxazepin-11-yl)piperazin-1-yl)ethoxy) acetic acid] | – | 24.5 | 10.1 | 467 | 420 | 35.7 | 240 | 13.3 | 15 | 7.56 | 144 | 8 | Kp ([2]; male, C57BL/6, mouse, in vivo, ip, mice, 1 mg/kg i.p., read-out: brain/plasma ratio): ≤ 0.3 |

Source: patent publication US20260258003A1, “SLACK-ACTIVATING COMPOUNDS AND THEIR MEDICAL USE” (Johann Wolfgang Goethe-Universität Frankfurt am Main, priority 2023, published 2026)
